Data on 14 compounds can be found in ChEMBL document CHEMBL5325462, “Regioselective synthesis and in vitro cytotoxicity evaluation of 3-thiooxindole derivatives: Tubulin polymerization inhibition and apoptosis inducing studies” (Bioorg Med Chem, 2023).

In one data set the test system is MCF7. In words: Cytotoxicity against human MCF7 cells assessed as inhibition of cell growth measured after 72 hrs by MTT assay. The conditions noted are these: MCF7, 72 h. It is filed as functional, cell-based. (Tetrazolium assays rely on reduction of a dye to a coloured formazan, in cell work by metabolically active cells.)
Data set [1] deals with HCT-116. Nature of the data set: Cytotoxicity against human HCT-116 cells assessed as inhibition of cell growth measured after 72 hrs by MTT assay. It is filed as functional, cell-based. The conditions noted are these: HCT-116, 72 h.
The next data set deals with A549. Nature of the data set: Cytotoxicity against human A549 cells assessed as inhibition of cell growth measured after 72 hrs by MTT assay. It is filed as functional, cell-based. The conditions noted are these: A549, 72 h.
A further data set relates to SK-MEL-28. Nature of the data set: Cytotoxicity against human SK-MEL-28 cells assessed as inhibition of cell growth measured after 72 hrs by MTT assay. It is filed as functional, cell-based. The conditions noted are these: SK-MEL-28, 72 h.
Data set [2] in a line: Cytotoxicity against rat NRK cells assessed as inhibition of cell growth measured after 72 hrs by MTT assay. It is filed as toxicity, cell-based.
A further data set concerns BT-474. Nature of the data set: Cytotoxicity against human BT-474 cells assessed as inhibition of cell growth measured after 72 hrs by MTT assay. It is filed as functional, cell-based. The conditions noted are these: BT-474, 72 h.
Data set [3] concerns HCT-116. Nature of the data set: Induction of apoptosis in human HCT-116 cells assessed as reduction in cell viability at 3.36 to 13.46 uM measured after 48 hrs by phase contrast microscope. It is filed as functional, cell-based. The conditions noted are these: dose 3.36-13.46 µM.
In data set [4] the test system is HCT-116. In words: Induction of morphological changes in human HCT-116 cells assessed as cell nucleus shrinkage at 3.36 to 13.46 uM measured after 48 hrs by phase contrast microscope. It is filed as functional, cell-based. The conditions noted are these: dose 3.36-13.46 µM.
Data set [5] concerns HCT-116. In words: Induction of nuclear morphological changes in human HCT-116 cells assessed as horseshoe shaped nuclei formation measured after 48 hrs by DAPI-staining based fluorescence microscopic analysis. It is filed as functional, cell-based.
The test system of data set [6] is HCT-116. In words: Induction of nuclear morphological changes in human HCT-116 cells assessed as change in nuclear shape measured after 48 hrs by DAPI-staining based fluorescence microscopic analysis. It is filed as functional, cell-based.
In data set [7] the test system is HCT-116. In words: Induction of nuclear morphological changes in human HCT-116 cells assessed as change in nuclear condensation measured after 48 hrs by DAPI-staining based fluorescence microscopic analysis. It is filed as functional, cell-based.
Data set [8] deals with HCT-116. In words: Induction of ROS production in human HCT-116 cells at 3.36 uM incubated for 72 hrs by DCFDA staining based fluorescence microscopic analysis. It is filed as functional, cell-based.
The test system of data set [9] is HCT-116. In words: Induction of morphological changes in human HCT-116 cells assessed as formation of apoptotic bodies incubated for 24 hrs by acridine orange/ethidium bromide staining based fluorescence microscopic analysis. It is filed as functional, cell-based.
The test system of data set [10] is HCT-116. Nature of the data set: Induction of morphological changes in human HCT-116 cells assessed as cell detachment at 3.36 to 13.46 uM measured after 48 hrs by phase contrast microscope. It is filed as functional, cell-based. The conditions noted are these: dose 3.36-13.46 µM.
The test system of data set [11] is HCT-116. In words: Induction of morphological changes in human HCT-116 cells assessed as formation of necrotic bodies incubated for 24 hrs by acridine orange/ethidium bromide staining based fluorescence microscopic analysis. It is filed as functional, cell-based.
Data set [12] has as its system HCT-116. In words: Inhibition of cell invasion in human HCT-116 cells at 3.36 to 13.46 uM measured after 48 hrs by phase contrast microscopic analysis. The conditions noted are these: dose 3.36-13.46 µM. It is filed as functional, cell-based.

Activity calls are given as the source filed them. The rule behind the calls is not given here.

Consider `O=c1[nH]cc(F)c(=O)[nH]1` [FLUOROURACIL], for which the IC50 (in general, the concentration at which inhibition is half-maximal) in the data set with MCF7 was determined as 24.8 µM; with HCT-116 [1] it was 16.6 µM; in the data set on A549, 25.4 µM.

As for `CC(C)(C)S(=O)(=O)NCC1(Sc2nnc(-c3cccc(Br)c3)o2)C(=O)N(Cc2ccccc2)c2ccccc21` (stereo unspecified), the IC50 with SK-MEL-28 is 12.6 µM; in the data set on MCF7, 12.8 µM; in the data set on BT-474, 12.7 µM; in the data set on HCT-116 [1] it was 12.1 µM; in the data set with A549, 12.1 µM. Moreover, in data set [2], the 50% inhibitory concentration (IC50) at 72 h was 14.1 µM.

`CN1C(=O)C(CNS(=O)(=O)C(C)(C)C)(Sc2nc3ccccc3[nH]2)c2cc(Br)ccc21` (stereo unspecified): the IC50 amounted to 16.8 µM with SK-MEL-28; 12.8 µM in the data set with MCF7; 13.1 µM in the data set with BT-474; 12.3 µM in the data set on HCT-116 [1]; 18.2 µM with A549. Moreover, the IC50 at 72 h in [2] stood at 25.7 µM.

Take `CC(C)(C)S(=O)(=O)NCC1(Sc2nc3ccccc3[nH]2)C(=O)N(Cc2ccccc2)c2ccccc21` (stereo unspecified): the half-maximal inhibitory concentration (IC50) in the data set with SK-MEL-28 was 22.3 µM; in the data set with MCF7, over 50 µM; in the data set with BT-474, 15.2 µM; in the data set on HCT-116 [1], 43.1 µM; in the data set on A549 it was 31.2 µM. Besides, the IC50 at 72 h in data set [2] came to 17.9 µM.

Regarding `COc1cccc(-c2nnc(SC3(CNS(=O)(=O)C(C)(C)C)C(=O)N(Cc4ccccc4)c4ccccc43)o2)c1` (stereo unspecified), the IC50 in the data set on SK-MEL-28 is 15.3 µM; with MCF7 it was over 50 µM; with BT-474 it was 14 µM; in the data set on HCT-116 [1], over 50 µM; with A549, 30.7 µM. In data set [2], the IC50 at 72 h was 22.9 µM.

As for `CC(C)(C)S(=O)(=O)NCC1(Sc2nnc(-c3ccccc3)o2)C(=O)N(Cc2ccccc2)c2ccccc21` (stereo unspecified), the IC50 was found to be 17.7 µM in the data set with SK-MEL-28; 15.5 µM in the data set with MCF7; 14.5 µM with BT-474; 15.4 µM with HCT-116 [1]; 14.2 µM in the data set with A549. In data set [2], the IC50 at 72 h is 31.9 µM.

With `Cc1ccc2c(c1)C(CNS(=O)(=O)C(C)(C)C)(Sc1nnc(-c3ccccc3)o1)C(=O)N2Cc1ccccc1` (stereo unspecified), the IC50 in the data set on SK-MEL-28 was 15.6 µM; in the data set with MCF7, 34.3 µM; with BT-474, 23.6 µM; in the data set with HCT-116 [1] it was over 50 µM; with A549, over 50 µM. Moreover, in data set [2], the IC50 at 72 h is 12.7 µM.

`COc1cccc(-c2nnc(SC3(CNS(=O)(=O)C(C)(C)C)C(=O)N(Cc4ccc(Br)cc4)c4ccccc43)n2-c2ccccc2)c1` (stereo unspecified): the 50% inhibitory concentration (IC50) with SK-MEL-28 is 26.1 µM; with MCF7, 35.8 µM; with BT-474, 13.8 µM; in the data set on HCT-116 [1], over 50 µM; in the data set with A549, over 50 µM. Besides, in data set [2], the IC50 at 72 h was 21.8 µM.

For the compound `CC(C)(C)S(=O)(=O)NCC1(Sc2nnc(-c3ccccc3)o2)C(=O)N(Cc2ccccc2)c2ccc(F)cc21` (stereo unspecified), the IC50 is 30.4 µM in the data set with SK-MEL-28; 40.4 µM in the data set with MCF7; 16.7 µM in the data set on BT-474; over 50 µM with HCT-116 [1]; 37.8 µM in the data set with A549. Besides, in data set [2], the IC50 at 72 h is 33.3 µM.

Regarding `CC(C)(C)S(=O)(=O)NCC1(Sc2nnc(-c3ccc(Cl)cc3)n2-c2ccccc2)C(=O)N(Cc2ccccc2)c2ccccc21` (stereo unspecified), the IC50 in the data set on SK-MEL-28 is over 50 µM; in the data set on MCF7 it was 45 µM; in the data set on BT-474, 16 µM; with HCT-116 [1], over 50 µM; with A549, over 50 µM. In addition, the IC50 at 72 h in data set [2] worked out at 24.8 µM.

Take `Cc1ccc(CN2C(=O)C(CNS(=O)(=O)C(C)(C)C)(Sc3nnc(-c4ccccc4)o3)c3ccccc32)cc1` (stereo unspecified): the IC50 in the data set with SK-MEL-28 stood at 17.1 µM; in the data set on MCF7, 13.9 µM; in the data set on BT-474 it was 12.3 µM; with HCT-116 [1], 6.73 µM; in the data set on A549 it was 14.2 µM. Besides, the result in the data set on HCT-116 [3], with HCT-116 [4], in the data set with HCT-116 [8], in the data set with HCT-116 [10] and with HCT-116 [11] was Active. In addition, the IC50 at 72 h in data set [2] was 18 µM. Also, the Activity result in the data set on HCT-116 [5], in the data set on HCT-116 [6], in the data set with HCT-116 [7] and in the data set with HCT-116 [9] was “Dose-Dependent Effect” in each case. For the same compound, in the data set with HCT-116 [12], the inhibition entry is “Active”.

For `CC(C)(C)S(=O)(=O)NCC1(Sc2nnc(-c3ccc(Cl)c(Cl)c3)o2)C(=O)N(Cc2ccc(Br)cc2)c2ccccc21` (stereo unspecified), the IC50 in the data set with SK-MEL-28 is 13.7 µM; in the data set on MCF7 it was over 50 µM; in the data set on BT-474, 15.3 µM; with HCT-116 [1], over 50 µM; in the data set on A549 it was 41.7 µM. Besides, in [2], the IC50 at 72 h is 21.9 µM.

Regarding `Cc1ccc(CN2C(=O)C(CNS(=O)(=O)C(C)(C)C)(Sc3nc4ccccc4[nH]3)c3ccccc32)cc1` (stereo unspecified), the half-inhibitory concentration (IC50) turned out to be 33.6 µM in the data set with SK-MEL-28; 13.9 µM with MCF7; 13.3 µM in the data set with BT-474; 8.96 µM in the data set on HCT-116 [1]; 13.2 µM in the data set with A549. The IC50 at 72 h in data set [2] worked out at 21.8 µM.

Turning to `Cc1ccc2c(c1)C(CNS(=O)(=O)C(C)(C)C)(Sc1nc3ccccc3s1)C(=O)N2C` (stereo unspecified), the IC50 in the data set with SK-MEL-28 came out at 23.6 µM; in the data set with MCF7 it was 17.2 µM; in the data set with BT-474, 13.2 µM; with HCT-116 [1], 8.99 µM; with A549, 18.2 µM. In addition, the IC50 at 72 h in data set [2] amounted to 26.8 µM.
